Test results: patent US11266632B1, “Maslinic and oleanolic acids derivatives for treating SARS-CoV-2 infection” (priority 2021, dated 2022)
Like-named read-outs stand apart in the source and are kept apart here.

Experiments:
[1] = system: SARS-CoV-2 "NRC-03-nhCoV" virus; experiment: Inhibitory concentration 50 (IC50) determination, virus-induced cytopathic effect in Vero-E6 cells, crystal violet; assay type: cell-based; details: for Selectivity Index (CC50/IC50): CC50 Vero E6 / IC50 NRC-03-nhCoV
[2] = system: MERS-CoV virus "NRCE-HKU270"; assay type: cell-based; details: Vero E6 cells
NRC-03-nhCoV = experiment: Mode of antiviral action, plaque infectivity reduction assay in Vero-E6 cells; assay type: cell-based, SARS-CoV-2
Experimental: To investigate whether the tested compound with high selectivity index and antiviral activity against NRC-03-nhCoV affect (a) viral adsorption, (b) viral replication or (c) viricidal effect, a plaque infectivity reduction assay was performed according to the following protocols:
The viral adsorption mechanism was assayed according to a protocol by Zhang et al. with modifications. Vero-E6 cells were cultivated in a 6-well plate (10^5 cells/mL) for 24 h at 37° C. Each tested drug was applied in 500 μL of medium without supplements and co-incubated with the cells for 2 h at 4° C. The non-absorbed drug in the applied inocula was removed by washing cells three times with 1×PBS. The NRC-03-nhCoV was diluted to a countable range “10-4” and co-incubated with the pretreated cells. About 1 h post-incubation, the inocula were removed and 3 mL of agarose overlay (1:1 mixture of warmed 2× plaque media and a stock solution of heated 2% agarose) were added. The plates were kept at room temperature to solidify and then incubated at 37° C. to allow the formation of viral plaques. […]
The impact of the tested drug on viral replication was determined as previously described. […] The analyzed compound was then applied in varying concentrations to infected cells for another 1 h contact time at 37° C. […]
The virucidal mechanism was analyzed. […]

[3] = Severe acute respiratory syndrome coronavirus 2, Vero C1008, 72 h, NRC-03-nhCoV in Vero E6, 72 h, reduction of CPE by 50%, read-out: IC50
[4] = Severe acute respiratory syndrome coronavirus 2, Vero C1008, 72 h

Row | SMILES | Selectivity Index (CC50/IC50) [1] | IC50 [1, 3] [µM] | also measured
1 | CC1(C)CC[C@]2(C(=O)OCc3cn(-c4ccc(Cl)cc4)nn3)CC[C@]3(C)C(=CCC4[C@@]5(C)C[C@@H](OCc6cn(-c7ccc(Cl)cc7)nn6)[C@H](O)C(C)(C)C5CC[C@]43C)C2C1 (stereo partly drawn) [Compound 12, (1-(4-Chlorophenyl)-1H-1,2,3-triazol-4-yl)methyl-(2α,3β)-2-((1-(4-chlorophenyl)-1H-1,2,3-triazol-4-yl)methoxy)-3-hydroxyolean-12-en-28-oate] | 4.42 | 116 | –
2 | CC1(C)CC[C@]2(C(=O)OCc3cc(-c4ccc(Cl)cc4)no3)CC[C@]3(C)C(=CCC4[C@@]5(C)C[C@@H](O)[C@H](O)C(C)(C)C5CC[C@]43C)C2C1 (stereo partly drawn) [Compound 17, (3-(4-chlorophenyl)isoxazol-5-yl) methyl-(2α,3β)-2,3-dihydroxyolean-12-en-28-oate] | – | 4.12 | antiviral activity against NRCE-HKU270 [2]: promising antiviral activity against NRCE-HKU270 at micromolar concentrations; IC50 ([1]; NRC-03-nhCoV in Vero E6, 72 h, reduction of CPE by 50%, read-out: IC50): 4.12 to 99.9 µM; interference with viral adsorption and replication (NRC-03-nhCoV): efficiently impair viral replication and adsorption; virucidal effect (NRC-03-nhCoV): virucidal effect
3 | C#CCOC(=O)[C@]12CCC(C)(C)CC1C1=CCC3[C@@]4(C)C[C@@H](O)[C@H](OCC#C)C(C)(C)C4CC[C@@]3(C)[C@]1(C)CC2 (stereo partly drawn) [Compound 6, Propargyl-(3α)-3-(propargyloxy)-(2β)-2-hydroxy-olean-12-en-28-oate] | 1.55 | 135 | –
4 | CC1(C)CC[C@]2(C(=O)O)CC[C@]3(C)C(=CC[C@@H]4[C@@]5(C)CC[C@H](O)C(C)(C)[C@@H]5CC[C@]43C)[C@@H]2C1 [Compound 1, Oleanic acid] | 0.39 | – | IC50 [1, 4]: 476 µM
5 | CC1(C)CC[C@]2(C(=O)O)CC[C@]3(C)C(=CC[C@@H]4[C@@]5(C)C[C@@H](O)[C@H](O)C(C)(C)[C@@H]5CC[C@]43C)[C@@H]2C1 [Compound 2, Maslinic acid] | 0.97 | – | IC50 [1, 4]: 99.9 µM
6 | C#CCOC(=O)[C@]12CCC(C)(C)CC1C1=CCC3[C@@]4(C)C[C@@H](O)[C@H](O)C(C)(C)C4CC[C@@]3(C)[C@]1(C)CC2 (stereo partly drawn) [Compound 4, Propargyl-(2α,3β)-2,3-dihydroxyolean-12-en-28-oate] | 0.67 | – | IC50 [1, 4]: 236 µM
7 | COc1ccc(-c2cc(COC(=O)[C@]34CCC(C)(C)CC3C3=CCC5[C@@]6(C)C[C@@H](O)[C@H](O)C(C)(C)C6CC[C@@]5(C)[C@]3(C)CC4)on2)cc1 (stereo partly drawn) [Compound 16, (3-(4-methoxyphenyl)isoxazol-5-yl) methyl-(2α,3β)-2,3-dihydroxyolean-12-en-28-oate] | 1.48 | – | –
8 | Cc1cccc(-n2nncc2COC(=O)[C@]23CCC(C)(C)CC2C2=CCC4[C@@]5(C)CC[C@H](O)C(C)(C)C5CC[C@@]4(C)[C@]2(C)CC3)c1 (stereo partly drawn) [Compound 8, (1-(3-mcthylphenyl)-1H-1,2,3-triazol-5-yl)methyl-(3β)-3-hydroxyolean-12-en-28-oate] | 0.98 | 174 | –
9 | C#CCOC(=O)[C@]12CCC(C)(C)CC1C1=CCC3[C@@]4(C)C[C@@H](OCC#C)[C@H](O)C(C)(C)C4CC[C@@]3(C)[C@]1(C)CC2 (stereo partly drawn) [Compound 5, Propargyl-(2α)-2-(propargyloxy)-(3β)-3-hydroxy-olean-12-en-28-oate] | 1.06 | 85.2 | –
10 | COc1ccc(-n2cc(COC(=O)[C@]34CCC(C)(C)CC3C3=CCC5[C@@]6(C)C[C@@H](O)[C@H](OCc7cn(-c8ccc(OC)cc8)nn7)C(C)(C)C6CC[C@@]5(C)[C@]3(C)CC4)nn2)cc1 (stereo partly drawn) [Compound 13, (1-(4-Methoxyphenyl)-1H-1,2,3-triazol-4-yl)methyl-(2α,3β)-2-hydroxy-3-((1-(4-methoxyphenyl)-1H-1,2,3-triazol-4-yl)methoxy)-olean-12-en-28-oate] | 2.24 | 159 | –
11 | Cc1cccc(-n2cc(COC(=O)[C@]34CCC(C)(C)CC3C3=CCC5[C@@]6(C)CC[C@H](O)C(C)(C)C6CC[C@@]5(C)[C@]3(C)CC4)nn2)c1 (stereo partly drawn) [Compound 10, (1-(3-methylphenyl)-1H-1,2,3-triazol-4-yl)methyl-(3β)-3-hydroxyolean-12-en-28-oate] | 3.68 | – | –
12 | COc1ccc(-c2cc(COC(=O)[C@]34CCC(C)(C)CC3C3=CCC5[C@@]6(C)CC[C@H](O)C(C)(C)C6CC[C@@]5(C)[C@]3(C)CC4)on2)cc1 (stereo partly drawn) [Compound 15, (3-(4-methoxyphenyl)isoxazol-5-yl) methyl-(3β)-3-hydroxyolean-12-en-28-oate] | 0.79 | – | –
13 | CC1(C)CC[C@]2(C(=O)OCc3cn(-c4ccccc4)nn3)CC[C@]3(C)C(=CCC4[C@@]5(C)C[C@@H](O)[C@H](O)C(C)(C)C5CC[C@]43C)C2C1 (stereo partly drawn) [Compound 11, (1-Phenyl-1H-1,2,3-triazol-4-yl)methyl-(2α,3β)-2,3-dihydroxyolean-12-en-28-oate] | 1.62 | 135 | –
14 | C#CCOC(=O)[C@]12CCC(C)(C)CC1C1=CCC3[C@@]4(C)C[C@@H](OCC#C)[C@H](OCC#C)C(C)(C)C4CC[C@@]3(C)[C@]1(C)CC2 (stereo partly drawn) [Compound 7, Propargyl-(2α,3β)-2,3-bis(propargyloxy)-olean-12-en-28-oate] | 0.9 | 108 | –
15 | COc1ccc(-n2cc(COC(=O)[C@]34CCC(C)(C)CC3C3=CCC5[C@@]6(C)C[C@@H](OCc7cn(-c8ccc(OC)cc8)nn7)[C@H](OCc7cn(-c8ccc(OC)cc8)nn7)C(C)(C)C6CC[C@@]5(C)[C@]3(C)CC4)nn2)cc1 (stereo partly drawn) [Compound 14, (1-(4-Methoxyphenyl)-1H-1,2,3-triazol-4-yl)methyl-(2α,3β)-2,3-bis((1-(4-methoxyphenyl)-1H-l,2,3-triazol-4-yl)methoxy)-olean-12-en-28-oate] | 2.96 | 137 | –
16 | C#CCOC(=O)[C@]12CCC(C)(C)CC1C1=CCC3[C@@]4(C)CC[C@H](O)C(C)(C)C4CC[C@@]3(C)[C@]1(C)CC2 (stereo partly drawn) [Compound 3, Propargyl-(3β)-3-hydroxyolean-12-en-28-oate] | 2.32 | – | –
